Results on 2 compounds are retold here after patent publication US20050025847A1, “Microbicidal compositions and method of use” (Program for Appropriate Technology in Health, priority 2003, published 2005).

The test system of one data set is HIV. The experiment in a line: inhibition of HIV infectivity. Type of data set: cell-based.
Data set [1] can be described thus: oral and dermal toxicity, genotoxicity, reproductive/developmental toxicity, sensitization and photosensitization studies. The note with it: oral, dermal, sensitization, photosensitization studies. The text has this: (§1) A preferred microbicidal agent according to the present invention is bisabolol. In particular, alpha-bisabolol (levomenol) is a preferred microbicidal agent. Bisabolol is a naturally occurring unsaturated monocyclic sesquiterpene alcohol. Alpha-bisabolol is used in a wide range or cosmetic formulations as a skin conditioning agent at concentrations ranging from approximately 0.001% in lipstick to approximately 1% in underarm deodorants. Bisabolol has been used for cosmetic purposes in India and worldwide in skin, oropharyngeal, nasal and vaginal products such as douches up to concentrations of approximately 5%, but has not been used in the prevention or treatment of STIs and/or common vaginal diseases. Bisabolol is the main active principle of chamomile (Matricaria chamomilla) and up to approximately 50% of the essential oil of chamomile consists of alpha-bisabolol.

The next data set has as its system lactobacilli. The experiment in a line: effect on lactobacilli. Type of data set: cell-based.
Text: as §1

For a further data set, the system named is Trichophyton rubrum. Particulars: isolates of Trichophyton rubrum; cited from earlier work.
Another data set deals with Epidermophyton floccosum. The note with it: isolates of Epidermophyton floccosum; cited from earlier work.
Another data set has as its system Microsporum canis. The note with it: isolates of Microsporum canis; cited from earlier work.
In data set [2] the test system is Trichophyton mentagrophytes. Particulars: isolates of Trichophyton mentagrophytes; cited from earlier work.
The subject of the next data set is Candida albicans. The note with it: isolates of Candida albicans; cited from earlier work.

Turning to `CC(C)=CCCC(C)(O)C1CC=C(C)CC1` (stereo not drawn) [Bisabolol, 3-Cyclohexene-1-methanol, alpha,4-dimethyl-alpha-(4-methyl-3-pentenyl)], the anti-HIV activity entry in the data set on HIV is on record as “very high anti-HIV activity”. Also, the “IC50, inhibition of HIV infectivity” value with HIV (mixed with the virus and cells) amounted to 0.6 µg/mL; in the data set with HIV (mixed with the virus for 5 minutes before washing), 1 µg/mL. Besides, the “inactivation of HIV” value in the data set on HIV (washed away after short-term treatment) was “inactivates HIV”. The toxicity entry in data set [1] was “little toxicity”. Also, the effect on lactobacilli result with lactobacilli (concentration 2 mg/ml) and in the data set with lactobacilli (concentration 10 mg/ml) was “no effect” in each case.

On to `Cc1cc(C2CCCCC2)n(O)c(=O)c1.NCCO` [Ciclopirox Olamine, 6-Cyclohexyl-1-hydroxy-4-methyl-2-(1H)-pyridone ethanolamine salt], for which the “fungicidal activity in vitro” value (in the data set with Trichophyton rubrum; in the data set on Epidermophyton floccosum; with Microsporum canis; in data set [2]; in the data set with Candida albicans) was “exhibits fungicidal activity” throughout.
